Patent US8492383B2 (Jewish General Hospital, priority 2002, dated 2013)
Several values for one entry are separate records, joined by “and”; a condition that tells them apart may be missing. Identical values can stand only once.

What was measured:
[1] = test system: lymphocytes from CLL patients; assay: MTT cytotoxic assay, lymphocytes from CLL patients; type: cell-based, human; settings: drug alone
[2] = test system: I83 cell line; settings: drug alone, MTT 72 hours

O=C(O)CCCc1ccc(N(CCCl)CCCl)cc1 [CLB, chlorambucil]
LD50 ([1]; CLL patient T^1 (previously treated with CLB)): 9.29 µM
LD50 ([1]; CLL patient T^2 (previously treated with CLB)): 23.1 µM
LD50 ([1]; CLL patient T^3 (previously treated with CLB)): 5.56 µM
LD50 ([1]; CLL patient T^4 (previously treated with CLB)): 79.7 µM
LD50 ([1]; CLL patient T^5 (previously treated with CLB)): 49.2 µM
LD50 ([1]; CLL patient U^1 (untreated)): 14.6 µM
LD50 ([1]; CLL patient U^2 (untreated)): 28.49 µM
LD50 ([1]; CLL patient U^3 (untreated)): 20.02 µM
LD50 ([1]; CLL patient U^4 (untreated)): 54.2 µM
LD50 ([1]; CLL patient U^5 (untreated)): 12.27 µM
LD50 ([1]; CLL patient U^6 (untreated)): 18.08 µM
LD50 ([1]; CLL patient U^7 (untreated)): 7.84 µM
LD50 [2]: 40.66 µM and 40.66 ± 2.80 µM
